Entries after “also recorded” stand apart in the source; their conditions may differ.

The nature of the first series: Enzymolysis kinetics experiment of compounds in plasma. The conditions noted are these: human plasma, 37° C., 1 min.
Turning to `CCCCCCC(=O)OC(C)OC(=O)C1CCn2c(C(=O)c3ccccc3)ccc21` (stereo not shown) [N27], the “Content of the compound %” value came to 100%.

The series is the same for the next values; noted with them: human plasma, 37° C., 15 min.
Turning to `CCCCCCC(=O)OC(C)OC(=O)C1CCn2c(C(=O)c3ccccc3)ccc21` (stereo not shown) [N27], the “Content of the compound %” value is 100%.

The same series, now with this note: human plasma, 37° C., 30 min.
With `CCCCCCC(=O)OC(C)OC(=O)C1CCn2c(C(=O)c3ccccc3)ccc21` (stereo not shown) [N27], the “Content of the compound %” value amounted to 90.63 ± 1.81%.

The same series, now with this note: human plasma, 37° C., 60 min.
Turning to `CCCCCCC(=O)OC(C)OC(=O)C1CCn2c(C(=O)c3ccccc3)ccc21` (stereo not shown) [N27], the “Content of the compound %” value was found to be 63.89 ± 1.20%.

The series is the same for the next values; noted with them: human plasma, 37° C., 120 min.
On to `CCCCCCC(=O)OC(C)OC(=O)C1CCn2c(C(=O)c3ccccc3)ccc21` (stereo not shown) [N27], for which the “Content of the compound %” value is listed as 35.75 ± 1.46%.

Still in this series, the particulars now being: human plasma, up to 120 min.
For the compound `CC(=O)OC(C)OC(=O)C(C)c1ccc(-c2ccccc2)c(F)c1` (stereo not shown) [FPA, flurbiprofen axetil, reference compound], the “degradation / metabolic rate in human plasma (in words)” value is “could be metabolized faster”.

The series is the same for the next values; noted with them: human, plasma.
In general, half-life refers to the time in which the quantity being followed falls by half. Read a low half-life as fast loss. In turn, `CCOC(=O)OC(CC)OC(=O)C1CCn2c(C(=O)c3ccccc3)ccc21` (stereo not shown) [N15] showed a half-life at 97.6 µM of 16.9 min.

As for `CCCCCCC(=O)OC(C)OC(=O)C1CCn2c(C(=O)c3ccccc3)ccc21` (stereo not shown) [N27], the half-life at 97.6 µM was 73.9 min.

The same series, now with this note: summary statement, metabolized in a human body.
As to `CC(OC(=O)C1CCn2c(C(=O)c3ccccc3)ccc21)OC(=O)C1CCn2c(C(=O)c3ccccc3)ccc21` (stereo not shown) [N22], the “metabolic rates (in words)” value is reported as “slow metabolic rates”.

Another series can be described thus: in vitro. The conditions noted are these: human, plasma.
`CC(C)OC(=O)OC(C)OC(=O)C1CCn2c(C(=O)c3ccccc3)ccc21` (stereo not shown) [N2] displayed a half-life at 97.6 µM of 38.6 min.

For `CCC(=O)OC(CC)OC(=O)C1CCn2c(C(=O)c3ccccc3)ccc21` (stereo not shown) [N8], the half-life at 97.6 µM came out at 16.9 min.

For the compound `CC(=O)OC(C)OC(=O)C(C)c1ccc(-c2ccccc2)c(F)c1` (stereo not shown) [FPA, flurbiprofen axetil, reference compound], the half-life at 97.6 µM turned out to be 40.8 min.

A further series is described as follows: By-product toxicity test (metabolic byproducts in the human body). The settings on record: by the metabolic pathways of the compounds in the human body.
For `CC(C)OC(=O)OC(C)OC(=O)C1CCn2c(C(=O)c3ccccc3)ccc21` (stereo not shown) [N2], the “Metabolic by-products in human body” value is “Acetaldehyde and isopropyl alcohol”.

Regarding `CC(OC(=O)C1CCn2c(C(=O)c3ccccc3)ccc21)OC(=O)C1CCn2c(C(=O)c3ccccc3)ccc21` (stereo not shown) [N22], the “Metabolic by-products in human body” value is reported as “Acetaldehyde”.

Regarding `CCCCCCC(=O)OC(C)OC(=O)C1CCn2c(C(=O)c3ccccc3)ccc21` (stereo not shown) [N27], the “Metabolic by-products in human body” value is “Acetaldehyde and n-heptanoic acid”.

The same series, now with this note: toxicity of the metabolic by-products in human body.
For `CC(C)OC(=O)OC(C)OC(=O)C1CCn2c(C(=O)c3ccccc3)ccc21` (stereo not shown) [N2], the Toxicity entry is recorded as “low toxicity of byproducts; also recorded: relatively low”.

Consider `CCC(=O)OC(CC)OC(=O)C1CCn2c(C(=O)c3ccccc3)ccc21` (stereo not shown) [N8], for which the Toxicity entry is on record as “low toxicity of byproducts; also recorded: relatively low”.

On to `CC(OC(=O)C1CCn2c(C(=O)c3ccccc3)ccc21)OC(=O)C1CCn2c(C(=O)c3ccccc3)ccc21` (stereo not shown) [N22], for which the Toxicity entry is listed as “relatively low toxicity of byproducts”.

Regarding `CCCCCCC(=O)OC(C)OC(=O)C1CCn2c(C(=O)c3ccccc3)ccc21` (stereo not shown) [N27], the Toxicity result is recorded as “low”.

The nature of a further series: High temperature stability study of compounds (60° C.). The series is classed as physicochemical. The conditions noted are these: in the dark, Day 0. Here is the method: Test protocol: the compounds prepared in the present disclosure were placed in a colorless and transparent vial, placed in the dark at a high temperature (60° C.), and were sampled for day 0, day 5 and day 10, respectively, and the purity of the compounds and the change of the related substance (ketorolac) were determined.
In the case of `CC(C)OC(=O)OC(C)OC(=O)C1CCn2c(C(=O)c3ccccc3)ccc21` (stereo not shown) [N2], the “Total main peak purity (%)” value is 95.58%.

Consider `CCC(=O)OC(CC)OC(=O)C1CCn2c(C(=O)c3ccccc3)ccc21` (stereo not shown) [N8], for which the “Total main peak purity (%)” value is 93.15%.

Consider `CCOC(=O)OC(CC)OC(=O)C1CCn2c(C(=O)c3ccccc3)ccc21` (stereo not shown) [N15], for which the “Total main peak purity (%)” value worked out at 96.30%.

Staying with this series, now noted: in the dark, Day 5.
On to `CC(C)OC(=O)OC(C)OC(=O)C1CCn2c(C(=O)c3ccccc3)ccc21` (stereo not shown) [N2], for which the “Total main peak purity (%)” value was found to be 95.21%.

As for `CCC(=O)OC(CC)OC(=O)C1CCn2c(C(=O)c3ccccc3)ccc21` (stereo not shown) [N8], the “Total main peak purity (%)” value turned out to be 93.30%.

On to `CCOC(=O)OC(CC)OC(=O)C1CCn2c(C(=O)c3ccccc3)ccc21` (stereo not shown) [N15], for which the “Total main peak purity (%)” value is reported as 95.87%.

The series is the same for the next values; noted with them: in the dark, Day 10.
Turning to `CC(C)OC(=O)OC(C)OC(=O)C1CCn2c(C(=O)c3ccccc3)ccc21` (stereo not shown) [N2], the “Total main peak purity (%)” value is 94.82%.

Consider `CCC(=O)OC(CC)OC(=O)C1CCn2c(C(=O)c3ccccc3)ccc21` (stereo not shown) [N8], for which the “Total main peak purity (%)” value is recorded as 92.34%.

`CCOC(=O)OC(CC)OC(=O)C1CCn2c(C(=O)c3ccccc3)ccc21` (stereo not shown) [N15]: the “Total main peak purity (%)” value is given as 95.59%.

Staying with this series, now noted: related substance, in the dark, Day 0.
With `CC(C)OC(=O)OC(C)OC(=O)C1CCn2c(C(=O)c3ccccc3)ccc21` (stereo not shown) [N2], the “Ketorolac (%)” value is 0.03%.

Turning to `CCC(=O)OC(CC)OC(=O)C1CCn2c(C(=O)c3ccccc3)ccc21` (stereo not shown) [N8], the “Ketorolac (%)” value is recorded as 0.18%.

In the case of `CCOC(=O)OC(CC)OC(=O)C1CCn2c(C(=O)c3ccccc3)ccc21` (stereo not shown) [N15], the “Ketorolac (%)” value is 0.08%.

The same series, now with this note: related substance, in the dark, Day 5.
In the case of `CC(C)OC(=O)OC(C)OC(=O)C1CCn2c(C(=O)c3ccccc3)ccc21` (stereo not shown) [N2], the “Ketorolac (%)” value was 0.04%.

Consider `CCC(=O)OC(CC)OC(=O)C1CCn2c(C(=O)c3ccccc3)ccc21` (stereo not shown) [N8], for which the “Ketorolac (%)” value turned out to be 0.42%.

Turning to `CCOC(=O)OC(CC)OC(=O)C1CCn2c(C(=O)c3ccccc3)ccc21` (stereo not shown) [N15], the “Ketorolac (%)” value came to 0.09%.

Staying with this series, now noted: related substance, in the dark, Day 10.
As for `CC(C)OC(=O)OC(C)OC(=O)C1CCn2c(C(=O)c3ccccc3)ccc21` (stereo not shown) [N2], the “Ketorolac (%)” value stood at 0.05%.

For `CCC(=O)OC(CC)OC(=O)C1CCn2c(C(=O)c3ccccc3)ccc21` (stereo not shown) [N8], the “Ketorolac (%)” value is recorded as 0.96%.

On to `CCOC(=O)OC(CC)OC(=O)C1CCn2c(C(=O)c3ccccc3)ccc21` (stereo not shown) [N15], for which the “Ketorolac (%)” value came out at 0.14%.

Experiment in the next series: not given
The settings on record: human, 0 min, 97.6 µM.
On to `CC(C)OC(=O)OC(C)OC(=O)C1CCn2c(C(=O)c3ccccc3)ccc21` (stereo not shown) [N2], for which the “Content of ketorolac %” value was 1.050 ± 0.079% and the “Content of the compound %” value turned out to be 98.950 ± 3.765%.

On to `CCC(=O)OC(CC)OC(=O)C1CCn2c(C(=O)c3ccccc3)ccc21` (stereo not shown) [N8], for which the “Content of ketorolac %” value came to 0% and the “Content of the compound %” value was 100 ± 1.782%.

`CCOC(=O)OC(CC)OC(=O)C1CCn2c(C(=O)c3ccccc3)ccc21` (stereo not shown) [N15]: the “Content of ketorolac %” value is 1.727 ± 1.502% and the “Content of the compound %” value came to 99.560 ± 2.324%.

The series is the same for the next values; noted with them: human, 15 min, 97.6 µM.
With `CC(C)OC(=O)OC(C)OC(=O)C1CCn2c(C(=O)c3ccccc3)ccc21` (stereo not shown) [N2], the “Content of ketorolac %” value is given as 8.860 ± 0.426% and the “Content of the compound %” value is on record as 88.103 ± 2.289%.

With `CCC(=O)OC(CC)OC(=O)C1CCn2c(C(=O)c3ccccc3)ccc21` (stereo not shown) [N8], the “Content of ketorolac %” value worked out at 19.140 ± 1.467% and the “Content of the compound %” value was 69.713 ± 6.985%.

Take `CCOC(=O)OC(CC)OC(=O)C1CCn2c(C(=O)c3ccccc3)ccc21` (stereo not shown) [N15]: the “Content of ketorolac %” value worked out at 23.933 ± 1.119% and the “Content of the compound %” value amounted to 76.800 ± 2.423%.

The series is the same for the next values; noted with them: human, 30 min, 97.6 µM.
For the compound `CC(C)OC(=O)OC(C)OC(=O)C1CCn2c(C(=O)c3ccccc3)ccc21` (stereo not shown) [N2], the “Content of ketorolac %” value was found to be 20.993 ± 0.561% and the “Content of the compound %” value is reported as 72.813 ± 2.707%.

On to `CCC(=O)OC(CC)OC(=O)C1CCn2c(C(=O)c3ccccc3)ccc21` (stereo not shown) [N8], for which the “Content of ketorolac %” value stood at 36.277 ± 3.301% and the “Content of the compound %” value was 42.467 ± 2.983%.

Turning to `CCOC(=O)OC(CC)OC(=O)C1CCn2c(C(=O)c3ccccc3)ccc21` (stereo not shown) [N15], the “Content of ketorolac %” value stood at 50.917 ± 1.868% and the “Content of the compound %” value came out at 46.680 ± 2.229%.

The same series, now with this note: human, 60 min, 97.6 µM.
As for `CC(C)OC(=O)OC(C)OC(=O)C1CCn2c(C(=O)c3ccccc3)ccc21` (stereo not shown) [N2], the “Content of ketorolac %” value is recorded as 34.590 ± 1.381% and the “Content of the compound %” value turned out to be 47.510 ± 1.739%.

`CCC(=O)OC(CC)OC(=O)C1CCn2c(C(=O)c3ccccc3)ccc21` (stereo not shown) [N8]: the “Content of ketorolac %” value is 53.130 ± 2.171% and the “Content of the compound %” value is 8.777 ± 0.560%.

On to `CCOC(=O)OC(CC)OC(=O)C1CCn2c(C(=O)c3ccccc3)ccc21` (stereo not shown) [N15], for which the “Content of ketorolac %” value worked out at 83.957 ± 3.139% and the “Content of the compound %” value came out at 12.760 ± 1.133%.

The series is the same for the next values; noted with them: human, 120 min, 97.6 µM.
For `CC(C)OC(=O)OC(C)OC(=O)C1CCn2c(C(=O)c3ccccc3)ccc21` (stereo not shown) [N2], the “Content of ketorolac %” value came to 59.790 ± 2.019% and the “Content of the compound %” value amounted to 12.573 ± 0.260%.

In the case of `CCC(=O)OC(CC)OC(=O)C1CCn2c(C(=O)c3ccccc3)ccc21` (stereo not shown) [N8], the “Content of ketorolac %” value is 65.997 ± 3.446% and the “Content of the compound %” value was 0%.

Consider `CCOC(=O)OC(CC)OC(=O)C1CCn2c(C(=O)c3ccccc3)ccc21` (stereo not shown) [N15], for which the “Content of ketorolac %” value was 96.910 ± 3.848% and the “Content of the compound %” value is given as 0.893 ± 0.051%.
